Results: the supplement of paper PMC10307832

Compound: CC(C)=CC[C@@H](O)C1=CC(=O)c2c(O)ccc(O)c2C1=O [Shikonin] + NC(=O)Nc1cc(-c2cccc(F)c2)sc1C(=O)N[C@H]1CCCNC1 [AZD7762] (partner 0.2 µM)
Test: relative viability (nuclei count vs DMSO), 5 days (fraction); higher = more cells survive
In short: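 Dosing by pin tool came one day after lung cancer cell lines were seeded in 1536-well plates, using either one drug or a fixed anchor-drug dose plus five library-drug doses (not always all listed) in √10 steps. After 5 days, nuclei were counted on 4× images. Relative viability is treated-well nuclei count divided by vehicle-well nuclei count, and values are medians of duplicate plates.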

Cell Line | relative viability (first compound 0.01 µM) | relative viability (first compound 0.1 µM) | relative viability (first compound 0.3162 µM) | relative viability (first compound 1 µM)
201T | 0.638 | 0.657 | 0.625 | 0.603
A-427 | 0.771 | 0.78 | 0.694 | 0.75
ABC-1 |  | 1.13 | 0.644 | 0.741
BEN | 0.744 | 0.807 | 0.718 | 0.694
CAL-12T | 0.606 | 0.751 | 0.622 | 0.736
ChaGo-K-1 | 0.942 | 0.906 | 0.913 | 0.876
EKVX | 0.744 | 0.698 | 0.851 | 0.703
EMC-BAC-2 | 1.15 | 1.32 | 1.21 | 1.16
EPLC-272H | 0.194 | 0.265 | 0.241 | 0.176
H3255 | 0.909 | 0.977 | 0.943 | 0.911
HARA | 0.259 | 0.348 | 0.271 | 0.368
HCC-15 | 1.33 | 1.18 | 1.34 | 1.24
HCC-44 | 1.03 | 1.01 | 1.05 | 1.04
HCC-78 | 0.647 | 0.74 | 0.534 | 0.694
HCC-366 | 0.281 | 0.25 | 0.308 | 0.269
HCC-827 | 0.203 | 0.216 | 0.2 | 0.197
HOP-62 | 0.949 | 0.648 | 0.584 | 0.646
LC-2-ad | 0.756 | 0.919 | 0.863 | 0.949
LCLC-97TM1 | 0.286 | 0.188 | 0.227 | 0.362
LCLC-103H | 0.796 | 0.889 | 0.815 | 0.954
LK-2 | 0.368 | 0.428 | 0.424 | 0.231

Cell Line | relative viability (first compound 0.01 µM) | relative viability (first compound 0.1 µM) | relative viability (first compound 0.3162 µM) | relative viability (first compound 1 µM)
LOU-NH91 | 0.839 | 0.864 | 0.816 | 0.84
LU99A | 0.381 | 0.334 | 0.687 | 0.323
LXF-289 | 1.13 | 1.15 | 1.14 | 1.18
NCI-H23 | 0.223 | 0.27 | 0.268 | 0.231
NCI-H322M | 0.59 | 0.568 | 0.451 | 0.572
NCI-H358 | 0.425 | 0.62 | 0.607 | 0.603
NCI-H441 | 1.39 | 0.935 | 1.16 | 1.43
NCI-H460 | 0.739 | 0.874 | 0.597 | 0.658
NCI-H522 | 0.912 | 0.957 | 0.864 | 0.806
NCI-H596 | 1.06 | 1.14 | 1.09 | 1.09
NCI-H647 | 0.646 | 0.406 | 0.429 | 0.529
NCI-H650 | 0.962 | 1.07 | 1.17 | 0.947
NCI-H727 | 0.682 | 0.584 | 0.732 | 0.647
NCI-H838 | 0.97 | 1.03 | 0.97 | 1.1
NCI-H1355 | 0.739 | 0.898 | 0.825 | 0.787
NCI-H1395 | 0.375 | 0.409 | 0.366 | 0.448
NCI-H1437 | 1.12 | 1.1 | 1.15 | 1.11
NCI-H1648 | 0.829 |  | 0.825 | 0.457
NCI-H1651 | 0.487 | 0.517 | 0.536 | 0.44
NCI-H1666 | 0.776 | 0.9 | 1 | 0.887
NCI-H1703 |  | 0.125 | 0.124 | 0.113

Cell Line | relative viability (first compound 0.01 µM) | relative viability (first compound 0.1 µM) | relative viability (first compound 0.3162 µM) | relative viability (first compound 1 µM)
NCI-H1734 | 0.557 | 0.552 | 0.595 | 0.55
NCI-H1755 | 0.384 | 0.422 | 0.373 | 0.427
NCI-H1792 | 0.663 | 0.618 | 0.604 | 0.694
NCI-H1793 | 0.555 | 0.531 | 0.494 | 0.629
NCI-H1915 | 0.695 | 0.752 | 0.728 | 0.729
NCI-H1944 | 0.454 | 0.558 | 0.763 | 0.561
NCI-H1975 | 0.746 | 0.683 | 0.808 | 0.8
NCI-H1993 | 0.524 | 0.667 | 0.632 | 0.906
NCI-H2085 | 1.02 | 1.06 | 0.957 | 1.05
NCI-H2087 | 1.38 | 1.12 | 1.35 | 1.23
NCI-H2126 | 1.03 | 1.01 | 1.11 | 1.08
NCI-H2170 | 0.912 | 0.737 | 0.975 | 0.905
NCI-H2342 | 0.503 | 0.451 | 0.471 | 0.472
NCI-H2347 | 0.77 | 0.947 | 0.829 | 0.712
NCI-H2405 | 0.794 | 0.986 | 0.716 | 0.77
NCI-H3122 | 0.973 | 1.07 | 1.05 | 0.959
PC-3 [JPC-3] | 0.825 | 0.846 | 0.755 | 1
PC-14 | 0.381 | 0.274 | 0.438 | 0.576
RERF-LC-KJ | 1.04 | 0.788 | 1.26 | 1.02
SW 900 | 0.769 | 0.634 | 0.262 | 0.542
